Biological target: T1, sGC α1/β1 heterodimer (Homo sapiens, UniProt Q02108+Q02153)
T1 construct: expressed in transfected cells; host or cells: CHO-K1 (clone #7, CHO-K1/sGC)
T1 sequence (Q02108 1-690): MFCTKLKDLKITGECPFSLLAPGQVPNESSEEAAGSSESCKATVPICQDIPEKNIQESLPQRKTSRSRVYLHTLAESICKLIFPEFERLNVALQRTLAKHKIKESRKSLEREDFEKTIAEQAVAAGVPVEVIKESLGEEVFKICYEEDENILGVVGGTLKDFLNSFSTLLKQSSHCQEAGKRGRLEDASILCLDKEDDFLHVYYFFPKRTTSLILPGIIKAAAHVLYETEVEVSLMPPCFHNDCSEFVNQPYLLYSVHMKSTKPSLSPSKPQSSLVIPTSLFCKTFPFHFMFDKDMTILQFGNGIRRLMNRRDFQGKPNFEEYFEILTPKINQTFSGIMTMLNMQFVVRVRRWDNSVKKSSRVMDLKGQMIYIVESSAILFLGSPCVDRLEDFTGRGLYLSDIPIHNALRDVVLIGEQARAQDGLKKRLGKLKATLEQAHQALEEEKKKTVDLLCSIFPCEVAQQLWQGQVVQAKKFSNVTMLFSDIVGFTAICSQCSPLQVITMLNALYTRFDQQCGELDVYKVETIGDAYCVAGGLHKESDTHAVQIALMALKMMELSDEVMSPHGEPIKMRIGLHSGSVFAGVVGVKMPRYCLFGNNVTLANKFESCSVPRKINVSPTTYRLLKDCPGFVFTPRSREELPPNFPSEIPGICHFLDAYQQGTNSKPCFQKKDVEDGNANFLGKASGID
T1 sequence (Q02153 1-619): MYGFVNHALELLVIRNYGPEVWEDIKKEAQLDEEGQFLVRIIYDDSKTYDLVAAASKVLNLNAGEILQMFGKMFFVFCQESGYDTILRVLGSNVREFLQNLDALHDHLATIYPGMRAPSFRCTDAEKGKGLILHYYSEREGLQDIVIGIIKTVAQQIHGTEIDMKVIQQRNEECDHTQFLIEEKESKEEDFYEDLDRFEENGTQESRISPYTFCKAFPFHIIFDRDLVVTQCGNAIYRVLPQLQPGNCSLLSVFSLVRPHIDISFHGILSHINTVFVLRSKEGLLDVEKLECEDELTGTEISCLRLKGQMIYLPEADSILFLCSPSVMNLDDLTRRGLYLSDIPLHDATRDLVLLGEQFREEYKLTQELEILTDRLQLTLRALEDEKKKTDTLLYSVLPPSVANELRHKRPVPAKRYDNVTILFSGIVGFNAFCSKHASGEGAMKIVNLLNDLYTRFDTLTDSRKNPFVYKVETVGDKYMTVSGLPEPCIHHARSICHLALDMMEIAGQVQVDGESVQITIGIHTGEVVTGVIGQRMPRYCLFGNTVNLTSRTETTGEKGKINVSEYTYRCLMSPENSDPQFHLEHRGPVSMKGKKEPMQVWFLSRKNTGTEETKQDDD
Experiment: Cell-Based sGC Functional Assay (CASA Assay), cGMP by HTRF in CHO-K1/sGC cells
Details: for Emax: CHO-K1, percent activation relative to maximum cGMP production of Compound A (= 100%), read-out: % Act.; for EC50: cGMP production, 1 hr at 37° C., 4P fit, presence or absence of 1 μM DETA-NO not given, read-out: IP (nM) (inflection point)
Source text: Biological Assay 1: Cell-Based sGC Functional Assay (CASA Assay)
sGC is a heme-containing enzyme that converts GTP to secondary messenger cGMP. Increases in cGMP levels affect several physiological processes including vasorelaxation through multiple downstream pathways. […] Heme-dependent activators (HDAs) preferentially activate sGC containing a ferrous heme group. To determine the effect of sGC activators on enzyme activity, the CASA assay was developed to monitor the generation of cGMP in a cell line that stably expresses the heterodimeric sGC protein.
A CHO-K1 cell line stably expressing the sGC α1/β1 heterodimer was generated using a standard transfection protocol. CHO-K1 cells were transfected with plasmids pIREShyghsGCα1 and pIRESneo-hsGCβ1 simultaneously using FUGENE reagent. Clones that stably express both subunits were selected with hygromycin and neomycin for ˜2 weeks. Clone #7 was chosen for the assay and was designated CHO-K1/sGC. CHO-K1/sGC cells were maintained in F-K12 medium containing 10% heat-inactivated Fetal Bovine Serum (FBS), 100 μg/mL penicillin/streptomycin, 0.5 mg/mL hygromycin and 0.25 mg/mL G418. The cells were then cryopreserved in LN2. On the day of the assay, cells were thawed and resuspended in EBSS Assay Buffer (Sigma, E3024) supplemented with 5 mM MgCl2, 10 mM HEPES (4-(2-hydroxyethyl)piperazine-1-ethanesulfonic acid) and 0.05% BSA (bovine serum albumin) (EAB) and cell density was then adjusted to 4×10^5/mL with EAB. IBMX (3-isobutyl-1-methylxanthin, 0.5 mM) was added to inhibit degradation of cGMP. Compounds were diluted from DMSO stock solutions and added to the assay at a final DMSO concentration of 2.5%. Cells were incubated with compounds in the presence and absence of 1 μM of Diethylenetriamine/nitric oxide adduct (DETA-NO; Sigma, 17018) for 1 hr at 37° C. At the end of the incubation period, the reaction was terminated and the cells were lysed with the detection reagents from Cisbio Kits. The level of intracellular cGMP was determined using an HTRF-based assay kit (CisBio, 62GM2PEC), which detects the displacement of a fluorescence labeled cGMP from its specific antibody. The cGMP produced by test compounds was directly compared to the maximum cGMP production (this value was set to equal 100% activation.) of the published sGC-HDA Compound A:
[drawing 175] (Example 1 in WO 2010/065275, published Jun. 10, 2010). The test compounds' activities were then expressed as a percentage of Compound A, the standard in every experiment. This percent activation was calculated either in the presence or absence of DETA-NO which was then plotted. IP and maximum fold induction was derived using ADA analysis software for 4P fit.
The compounds in the Examples of the instant invention had inflection points (IP) less than or equal to 10 μM and most less than or equal to about 1 μM.

| Emax [%] | EC50 [nM] | SMILES |
| --- | --- | --- |
| 113 | 343 | O=C1Nc2nc(-c3cn4ccnc4c(CCC(F)(F)C(F)(F)F)n3)ncc2C1(c1ccc(Cl)cn1)C1CC1 (stereo not shown) [Example 7A, 5-(5-chloropyridin-2-yl)-5-cyclopropyl-2-(8-(3,3,4,4,4-pentafluorobutyl)imidazo[1,2-a]pyrazin-6-yl)-5H-pyrrolo[2,3-d]pyrimidin-6(7H)-one] |
| 127 | 105 | CC1(c2ccc(Cl)cc2)C(=O)Nc2nc(-c3cn4ccnc4cn3)nc(-c3ccccc3)c21 (stereo not shown) [Example 84A, 5-(4-Chlorophenyl)-2-(imidazo[1,2-a]pyrazin-6-yl)-5-methyl-4-phenyl-5H-pyrrolo[2,3-d]pyrimidin-6(7H)-one] |
| 98 | 56 | CCCCc1nc(-c2ncc3c(n2)NC(=O)C3(c2ccc(OC(F)(F)F)cc2)C2CC2)cn2ccnc12 (stereo not shown) [Example 51A, 2-(8-butylimidazo[1,2-a]pyrazin-6-yl)-5-cyclopropyl-5-(4-(trifluoromethoxy)phenyl)-5H-pyrrolo[2,3-d]pyrimidin-6(7H)-one] |
| 110 | 22 | CC1(c2ccc(Cl)cc2)C(=O)Nc2nc(-c3cn4ccnc4c(CCCC(F)(F)F)n3)ncc21 (stereo not shown) [Example 40A, 5-(4-chlorophenyl)-5-methyl-2-(8-(4,4,4-trifluorobutyl)imidazo[1,2-a]pyrazin-6-yl)-5H-pyrrolo[2,3-d]pyrimidin-6(7H)-one] |
| 111 | 122 | CC1(c2ccc(F)cc2)C(=O)Nc2nc(-c3cn4ccnc4c(Cc4ccc(F)cc4)n3)ncc21 (stereo not shown) [Example 80A, 2-(8-(4-fluorobenzyl)imidazo[1,2-a]pyrazin-6-yl)-5-(4-fluorophenyl)-5-methyl-5H-pyrrolo[2,3-d]pyrimidin-6(7H)-one] |
| 109 | 234 | CCCCc1nc(-c2nc(O)c3c(n2)NC(=O)C3(C)c2ccc(F)cn2)cn2ccnc12 (stereo not shown) [Example 83B, 2-(8-butylimidazo[1,2-a]pyrazin-6-yl)-5-(5-fluoropyridin-2-yl)-4-hydroxy-5-methyl-5H-pyrrolo[2,3-d]pyrimidin-6(7H)-one] |
| 110 | 606 | COc1nc(-c2cn3ccnc3c(CCC(F)(F)C(F)(F)F)n2)nc2c1C(C)(c1ccc(F)cc1)C(=O)N2 (stereo not shown) [Example 89A, 5-(4-Fluorophenyl)-4-methoxy-5-methyl-2-(8-(3,3,4,4,4-pentafluorobutyl)imidazo[1,2-a]pyrazin-6-yl)-5H-pyrrolo[2,3-d]pyrimidin-6(7H)-one] |
| 111 | 107 | CCCCc1nc(-c2nc(O)c3c(n2)NC(=O)C3(c2ccc(Cl)cc2F)C2CC2)cn2ccnc12 (stereo not shown) [Example 33A, 2-(8-butylimidazo[1,2-a]pyrazin-6-yl)-5-(4-chloro-2-fluorophenyl)-5-cyclopropyl-4-hydroxy-5H-pyrrolo[2,3-d]pyrimidin-6(7H)-one] |
| 100 | 38 | COCCOc1nc(-c2cn3ccnc3c(CCC(F)(F)C(F)(F)F)n2)nc2c1C(C)(c1ccc(F)cc1)C(=O)N2 (stereo not shown) [Example 88A, 5-(4-Fluorophenyl)-4-(2-methoxyethoxy)-5-methyl-2-(8-(3,3,4,4,4-pentafluorobutyl)imidazo[1,2-a]pyrazin-6-yl)-5H-pyrrolo[2,3-d]pyrimidin-6(7H)-one] |
| 126 | 438 | O=C1Nc2nc(-c3cn4ccnc4c(CCCC(F)(F)F)n3)nc(O)c2C1(c1ccc(Cl)c(F)c1)C1CC1 (stereo not shown) [Example 22A, 5-(4-chloro-3-fluorophenyl)-5-cyclopropyl-4-hydroxy-2-(8-(4,4,4-trifluorobutyl)imidazo[1,2-a]pyrazin-6-yl)-5H-pyrrolo[2,3-d]pyrimidin-6(7H)-one] |
| 97 | 257 | CC1(c2ccc(F)cc2)C(=O)Nc2nc(-c3cn4ccnc4c(CCC(F)(F)C(F)(F)F)n3)nc(C#N)c21 (stereo not shown) [Example 85A, 5-(4-Fluorophenyl)-5-methyl-6-oxo-2-(8-(3,3,4,4,4-pentafluorobutyl)imidazo[1,2-a]pyrazin-6-yl)-6,7-dihydro-5H-pyrrolo[2,3-d]pyrimidine-4-carbonitrile] |
| 142 | 1180 | O=C1Nc2nc(-c3cn4ccnc4c(CCC(F)(F)C(F)(F)F)n3)nc(O)c2C1(c1ccc(Cl)cn1)C1CC1 (stereo not shown) [Example 8A, 5-(5-chloropyridin-2-yl)-5-cyclopropyl-4-hydroxy-2-(8-(3,3,4,4,4-pentafluorobutyl)imidazo[1,2-a]pyrazin-6-yl)-5H-pyrrolo[2,3-d]pyrimidin-6(7H)-one] |
| 70 | 183 | CC1(c2ccc(Cl)c(F)c2)C(=O)Nc2nc(-c3cn4ccnc4c(CCC(F)(F)F)n3)nc(O)c21 (stereo not shown) [Example 13B, 5-(4-chloro-3-fluorophenyl)-4-hydroxy-5-methyl-2-(8-(3,3,3-trifluoropropyl)imidazo[1,2-a]pyrazin-6-yl)-5H-pyrrolo[2,3-d]pyrimidin-6(7H)-one] |
| 126 | 30 | O=C1Nc2nc(-c3cn4ccnc4c(CCCC(F)(F)F)n3)ncc2C1(c1ccc(F)cc1)C1CC1 (stereo not shown) [Example 60B, 5-cyclopropyl-5-(4-fluorophenyl)-2-(8-(4,4,4-trifluorobutyl)imidazo[1,2-a]pyrazin-6-yl)-5H-pyrrolo[2,3-d]pyrimidin-6(7H)-one] |
| 104 | 401 | CC1(c2ccc(Cl)cc2)C(=O)Nc2nc(-c3cn4ccnc4c(CCC(F)(F)F)n3)ncc21 (stereo not shown) [Example 61A, 5-(4-chlorophenyl)-5-methyl-2-(8-(3,3,3-trifluoropropyl)imidazo[1,2-a]pyrazin-6-yl)-5H-pyrrolo[2,3-d]pyrimidin-6(7H)-one] |
| 128 | 107 | CCCCc1nc(-c2nc(O)c3c(n2)NC(=O)C3(c2ccc(F)c(F)c2)C2CC2)cn2ccnc12 (stereo not shown) [Example 19A, 2-(8-butylimidazo[1,2-a]pyrazin-6-yl)-5-cyclopropyl-5-(3,4-difluorophenyl)-4-hydroxy-5H-pyrrolo[2,3-d]pyrimidin-6(7H)-one] |
| 83 | 282 | CCCOc1nc(-c2ncc3c(n2)NC(=O)C3(C)c2ccc(F)cc2)cn2ccnc12 (stereo not shown) [Example 92A, 5-(4-Fluorophenyl)-5-methyl-2-(8-propoxyimidazo[1,2-a]pyrazin-6-yl)-5H-pyrrolo[2,3-d]pyrimidin-6(7H)-one] |

From patent US10213429B2, “Imidazo-pyrazinyl derivatives useful as soluble guanylate cyclase activators” (Merck Sharp & Dohme Corp., priority 2015, dated 2019)
